Test: mn = molality of the nth substance listed, in mol/kg
Details: 350 kPa, Liquid; for apparent molar heat capacity: Extra sensitive DSC

OC[C@@H](O)[C@H](O)[C@H](O)[C@@H](O)CO [dulcitol] + O
Details | apparent molar heat capacity [J/K/mol] | mass density [kg/m3]
278.15 K, m1 = 0.0188 | 374 | 1001.19
278.15 K, m1 = 0.0418 | 369 | 1002.77
278.15 K, m1 = 0.0698 | 379.2 | 1004.44
278.15 K, m1 = 0.0986 | 380.1 | 1006.47
278.15 K, m1 = 0.119 | 370.3 | 1007.99
278.15 K, m1 = 0.1492 | 379.2 | 1009.86
283.15 K, m1 = 0.0188 | 394 | 1000.99
283.15 K, m1 = 0.0418 | 389 | 1002.48
283.15 K, m1 = 0.0698 | 397.8 | 1004.2
283.15 K, m1 = 0.0986 | 398.6 | 1006.13
283.15 K, m1 = 0.119 | 388.5 | 1007.58
283.15 K, m1 = 0.1492 | 397.5 | 1009.47
288.15 K, m1 = 0.0188 | 409 | 1000.42
288.15 K, m1 = 0.0418 | 405 | 1001.85
288.15 K, m1 = 0.0698 | 412.3 | 1003.61
288.15 K, m1 = 0.0986 | 413.3 | 1005.5
288.15 K, m1 = 0.119 | 402.7 | 1006.94
288.15 K, m1 = 0.1492 | 412 | 1008.75
293.15 K, m1 = 0.0188 | 423 | –
293.15 K, m1 = 0.0418 | 418 | –
293.15 K, m1 = 0.0698 | 425.3 | –
293.15 K, m1 = 0.0986 | 426.5 | –
293.15 K, m1 = 0.119 | 416.6 | –
293.15 K, m1 = 0.1492 | 425 | –
298.15 K, m1 = 0.0188 | 434 | 998.35
298.15 K, m1 = 0.0418 | 430 | 999.74
298.15 K, m1 = 0.0698 | 436.4 | 1001.5
298.15 K, m1 = 0.0986 | 437.6 | 1003.47
298.15 K, m1 = 0.119 | 428.5 | 1004.74
298.15 K, m1 = 0.1492 | 436.1 | 1006.52
303.15 K, m1 = 0.0188 | 444 | –
303.15 K, m1 = 0.0418 | 439 | –
303.15 K, m1 = 0.0698 | 446 | –
303.15 K, m1 = 0.0986 | 447.4 | –
303.15 K, m1 = 0.119 | 438.9 | –
303.15 K, m1 = 0.1492 | 445.8 | –
308.15 K, m1 = 0.0188 | 453 | 995.36
308.15 K, m1 = 0.0418 | 448 | 996.65
308.15 K, m1 = 0.0698 | 454.4 | 998.44
308.15 K, m1 = 0.0986 | 456 | 1000.21
308.15 K, m1 = 0.119 | 447.9 | 1001.54
308.15 K, m1 = 0.1492 | 454.3 | 1003.38
313.15 K, m1 = 0.0188 | 461 | –
313.15 K, m1 = 0.0418 | 455.7 | –
313.15 K, m1 = 0.0698 | 462.1 | –
313.15 K, m1 = 0.0986 | 463.5 | –
313.15 K, m1 = 0.119 | 456 | –
313.15 K, m1 = 0.1492 | 461.9 | –
318.15 K, m1 = 0.0188 | 468 | 991.52
318.15 K, m1 = 0.0418 | 462.7 | 992.87
318.15 K, m1 = 0.0698 | 468.8 | 994.59
318.15 K, m1 = 0.0986 | 470.3 | 996.35
318.15 K, m1 = 0.119 | 463.3 | 997.6
318.15 K, m1 = 0.1492 | 468.7 | 999.44
323.15 K, m1 = 0.0188 | 475 | –
323.15 K, m1 = 0.0418 | 469 | –
323.15 K, m1 = 0.0698 | 474.9 | –
323.15 K, m1 = 0.0986 | 476.5 | –
323.15 K, m1 = 0.119 | 469.8 | –
323.15 K, m1 = 0.1492 | 474.8 | –
328.15 K, m1 = 0.0188 | 481 | 986.98
328.15 K, m1 = 0.0418 | 474.7 | 988.34
328.15 K, m1 = 0.0698 | 480.5 | 990.01
328.15 K, m1 = 0.0986 | 482.1 | 991.76
328.15 K, m1 = 0.119 | 475.7 | 993.01
328.15 K, m1 = 0.1492 | 480.4 | 994.81
333.15 K, m1 = 0.0188 | 486 | –
333.15 K, m1 = 0.0418 | 479.8 | –
333.15 K, m1 = 0.0698 | 485.6 | –
333.15 K, m1 = 0.0986 | 487.2 | –
333.15 K, m1 = 0.119 | 481 | –
333.15 K, m1 = 0.1492 | 485.5 | –
338.15 K, m1 = 0.0188 | 491 | 981.81
338.15 K, m1 = 0.0418 | 484.5 | 983.19
338.15 K, m1 = 0.0698 | 490.1 | 984.85
338.15 K, m1 = 0.0986 | 491.8 | 986.55
338.15 K, m1 = 0.119 | 486 | 987.85
338.15 K, m1 = 0.1492 | 490.1 | 989.64
343.15 K, m1 = 0.0188 | 495 | –
343.15 K, m1 = 0.0418 | 488.6 | –
343.15 K, m1 = 0.0698 | 494.2 | –
343.15 K, m1 = 0.0986 | 495.9 | –
343.15 K, m1 = 0.119 | 490.4 | –
343.15 K, m1 = 0.1492 | 494.3 | –
348.15 K, m1 = 0.0188 | 499 | 976.1
348.15 K, m1 = 0.0418 | 492.2 | 977.46
348.15 K, m1 = 0.0698 | 497.9 | 979.12
348.15 K, m1 = 0.0986 | 499.6 | 980.85
348.15 K, m1 = 0.119 | 494.4 | 982.09
348.15 K, m1 = 0.1492 | 497.9 | 983.86
353.15 K, m1 = 0.0188 | 502 | –
353.15 K, m1 = 0.0418 | 495.4 | –
353.15 K, m1 = 0.0698 | 501.2 | –
353.15 K, m1 = 0.0986 | 502.9 | –
353.15 K, m1 = 0.119 | 498.1 | –
353.15 K, m1 = 0.1492 | 501.2 | –
358.15 K, m1 = 0.0188 | 504 | 969.86
358.15 K, m1 = 0.0418 | 498.1 | 971.46
358.15 K, m1 = 0.0698 | 503.5 | 972.88
358.15 K, m1 = 0.0986 | 505.2 | 974.54
358.15 K, m1 = 0.119 | 501.3 | 975.86
358.15 K, m1 = 0.1492 | 503.6 | 977.9
363.15 K, m1 = 0.0188 | 506 | –
363.15 K, m1 = 0.0418 | 499.6 | –
363.15 K, m1 = 0.0698 | 504.4 | –
363.15 K, m1 = 0.0986 | 505.7 | –
363.15 K, m1 = 0.119 | 504.1 | –
363.15 K, m1 = 0.1492 | 504.3 | –
368.15 K, m1 = 0.0188 | – | 963.12
368.15 K, m1 = 0.0418 | – | 964.48
368.15 K, m1 = 0.0698 | – | 966.14
368.15 K, m1 = 0.0986 | – | 967.86
368.15 K, m1 = 0.119 | – | 969.19
368.15 K, m1 = 0.1492 | – | 970.84

— the NIST ThermoML archive (doi:10.1016/j.jct.2006.08.009)
